The results in this text go back to PMC2625307 (Journal of molecular biology, 2008).

The target of test [1] is T1, YU2 gp120 (Human immunodeficiency virus type 1 group M subtype B, UniProt P35961). On the set-up: species or system HIV-1. To be noted: vs other mimetics.
Another test has as its system HIV-1 gp120. Particulars: vs biphenyl counterpart (CD4M33, CD4M47).
Another test concerns GAB-1 fl. The class given is cell-based, SIVcpz (P.t.t). To be noted: JC53BL-13 cells, genetic distance to HXBc2 0.43711.
In test [2] the target is T1, YU2 gp120. The test is described as follows: Contact surface area of gp120, YU2. On the set-up: species or system HIV-1.
The subject of a further test is NL4.3 env. The class given is cell-based, HIV-1 group M. To be noted: JC53BL-13 cells, genetic distance to HXBc2 0.05769.
In test [3] the target is T1, YU2 gp120. The test is described as follows: Surface-plasmon resonance binding, YU2 gp120. Also on record: species or system HIV-1.
Another test has as its system IIIB. The class given is cell-based, HIV-1 group M. To be noted: PM1 cells, genetic distance to HXBc2 0.03060.
The next test deals with GAB-2 62 fl. The class given is cell-based, SIVcpz (P.t.t). To be noted: JC53BL-13 cells, genetic distance to HXBc2 0.47819.
The next test relates to MN-25. The class given is cell-based, HIV-1 group M. Particulars: JC53BL-13 cells, genetic distance to HXBc2 0.17951.
A further test deals with YU-2 env. The class given is cell-based, HIV-1 group M. To be noted: JC53BL-13 cells, genetic distance to HXBc2 0.16766.
The target of the next test is HXBc2 gp120 (Human immunodeficiency virus type 1 group M subtype B, UniProt P04578). The test is described as follows: Surface-plasmon resonance binding, HXBc2 gp120. Also on record: species or system HIV-1.
Another test deals with BaL. The class given is cell-based, HIV-1 group M. Particulars: PM1 cells, genetic distance to HXBc2 0.13532.

In the case of `CC(C)C[C@@H]1NC(=O)CNC(=O)[C@H](CC(C)C)NC(=O)[C@H](CO)NC(=O)[C@H](CCCCN)NC(=O)[C@@H]2CSSC[C@@H](C(=O)N[C@H](C(N)=O)C(C)C)NC(=O)[C@H](C)NC(=O)[C@@H]3CSSC[C@H](NC(=O)[C@H](Cc4ccccc4)NC(=O)[C@H](Cc4c[nH]cn4)NC(=O)[C@H](CC(C)C)NC(=O)[C@H](CC(N)=O)NC(=O)CCSSC[C@H](NC(=O)[C@H](CCCCN)NC(=O)CNC(=O)[C@H](CC(C)C)NC1=O)C(=O)N[C@@H](C)C(=O)NCC(=O)N[C@@H](CO)C(=O)N[C@@H](Cc1ccccc1)C(=O)N3)C(=O)N[C@@H](CCC(N)=O)C(=O)N[C@@H](CC(C)C)C(=O)N[C@@H](CCCNC(=N)N)C(=O)N2` [[Phe^23]M33], the “similarity of induced gp120 conformation to that induced by CD4” value on YU2 gp120 [1] is reported as “the closest mimic to CD4”. Moreover, in the test on HIV-1 gp120, the “on-rate compared with biphenyl counterpart” value is recorded as “about half as fast”. Besides, the IC50 in the test with GAB-1 fl was determined as 0.35 µM; in the test on NL4.3 env, 0.013 µM; with IIIB, 0.26 µM; with GAB-2 62 fl, 1 µM; in the test with MN-25, 3.6 µM; with YU-2 env, 1 µM. In the test on BaL, this molecule displayed an IC50 of 0.2 µM. Also, the “Contact surface area of gp120, total” value amounted to 363.8 Å^2 at YU2 gp120 [2] (asymmetric unit molecule (1)) and 398.0 Å^2 at YU2 gp120 [2] (asymmetric unit molecule (2)). Besides, the Kd came to 0.0351 ± 0.00018 µM at YU2 gp120 [3] and 0.0189 ± 0.00014 µM at HXBc2 gp120.

The IC50 is the concentration that inhibits the measured activity by half. By Kd is commonly meant the equilibrium constant for the complex coming apart. A low value points to higher affinity.
